Laboratory results: PubChem BioAssay (NCI)
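Tested at 5 concentrations; 48 h exposure; 96-well plates; endpoints linearly interpolated, else capped at highest concentration. GI50 is the concentration that inhibits growth by half. TGI: concentration producing complete growth inhibition.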

Legend:
Assay in all cases: NCI anticancer screen, dose series, 48 h
[1] = system: SF-295 CNS
[2] = system: UACC-257 melanoma
[3] = system: SN12C renal
[4] = system: SF-539 CNS
[5] = system: RXF 393 renal
[6] = system: TK-10 renal
[7] = system: HCT-116 colon
[8] = system: CCRF-CEM leukemia
[9] = system: K-562 leukemia
[10] = system: MDA-MB-435

SMILES	GI50 [1]	TGI [1]	GI50 [2]	TGI [2]	GI50 [3] [µM]	TGI [3] [µM]	GI50 [4]	TGI [4]	GI50 [5]	TGI [5]	GI50 [6]	TGI [6]	GI50 [7]	TGI [7]	TGI [8] [µM]	TGI [9]	GI50 [10]	TGI [10]	GI50 [9]	GI50 [8] [µM]
CCC[CH2][Sn]([CH2]CCC)([O]C(=O)c1nccnc1N)[O]C(=O)c1nccnc1N	1.26 µM	2.52 µM	1.03 µM	2.23 µM	0.791	2.04	1.09 µM	2.3 µM	0.187 µM	1.31 µM	0.742 µM	2.02 µM	1.1 µM	2.3 µM	–	–	–	–	–	–
CC1=C(c2cc(C(=O)Nc3ccc(Cl)c(Cl)c3)nc(N)n2)Sc2ccccc2N1	–	> 100 µM	–	> 100 µM	–	> 100	–	> 100 µM	–	> 100 µM	–	> 100 µM	–	> 100 µM	> 100	> 100 µM	–	–	–	–
NCC1OC(OC2C(CO)OC(OC3C(O)C(N)CC(N)C3OC3OC(CO)C(O)C(O)C3N)C2O)C(N)C(O)C1O (configuration not stated)	> 50 µg/mL	> 50 µg/mL	> 50 µg/mL	> 50 µg/mL	–	–	> 50 µg/mL	> 50 µg/mL	> 50 µg/mL	> 50 µg/mL	> 50 µg/mL	> 50 µg/mL	> 50 µg/mL	> 50 µg/mL	–	> 50 µg/mL	> 50 µg/mL	> 50 µg/mL	> 50 µg/mL	–
CCOc1ccc(N=Nc2ccc3oc(=O)c(C(=O)Nc4ccc(OC)cc4)cc3c2)cc1	–	> 100 µM	–	> 100 µM	–	> 100	–	51 µM	–	–	–	> 100 µM	–	26.2 µM	25.4	> 100 µM	–	–	–	–
Cc1cc(C)cc(Sc2c([N+](=O)[O-])ncn2C)c1	–	70.8 µM	–	27.7 µM	–	31.8	–	20.9 µM	–	–	–	72.4 µM	–	32.4 µM	> 100	> 100 µM	–	–	–	–
O=C1C(Cl)=C(Nc2cccc(O)c2)C(=O)N1c1ccc(Cl)c(Cl)c1	25.9 µM	83.5 µM	–	–	18.1	39.4	–	–	14.5 µM	42.2 µM	25.7 µM	63.8 µM	18.4 µM	33.9 µM	74.6	> 100 µM	21.9 µM	59.6 µM	25.5 µM	25.2
COc1ccc(Cc2cnc(NC(=O)c3sc4ccccc4c3Cl)s2)cc1	0.383 µM	> 100 µM	25.7 µM	> 100 µM	0.687	> 100	0.236 µM	0.674 µM	0.179 µM	0.579 µM	4.31 µM	> 100 µM	0.408 µM	> 100 µM	> 100	> 100 µM	–	–	0.289 µM	0.402
CC[O-].Cc1ccc2cccc([O-])c2n1.Cc1ccc2cccc([O-])c2n1.Cc1ccc2cccc([O-])c2n1.[Ti+4]	17.5 µM	> 62 µM	18.6 µM	> 85 µM	65.3	> 100	40.4 µM	> 100 µM	30.9 µM	70.9 µM	44.2 µM	> 83.9 µM	33.8 µM	> 100 µM	38.8	52.2 µM	–	–	11.7 µM	6.97
c1ccc(-c2nn(-c3ccccc3)[n+](-c3cccc4ccccc34)n2)cc1	2.69 µM	26.6 µM	0.48 µM	8.18 µM	2.45	> 100	2.33 µM	27.7 µM	2.24 µM	31.4 µM	8.53 µM	73.6 µM	0.708 µM	17.9 µM	–	16.1 µM	0.961 µM	2.67 µM	0.608 µM	–
CC(C)(C)[Si](C)(C)O/N=C\c1ccc(O[Si](C)(C)C(C)(C)C)cc1	–	> 100 µM	–	> 100 µM	–	> 100	–	> 100 µM	–	63.7 µM	–	> 100 µM	–	63 µM	> 100	> 100 µM	–	–	–	–
C[C@H]1CC(=O)C2=CCCC3(SCCCS3)[C@@H]2[C@H]1CO	–	> 100 µM	–	> 100 µM	–	> 100	–	> 100 µM	–	> 100 µM	–	> 100 µM	–	> 100 µM	> 100	> 100 µM	–	–	–	–
COc1ccc(C2=C(c3cc(OC)c(OC)c(OC)c3)C(=O)CC2)cc1	0.0548 µM	> 20.5 µM	–	> 100 µM	0.676	> 100	0.189 µM	> 48.3 µM	–	–	12.3 µM	> 100 µM	0.156 µM	> 100 µM	–	> 100 µM	0.0291 µM	0.12 µM	0.0449 µM	0.21
CN(c1ccccc1)C1C(=O)N(c2ccccc2)C1/C=C/c1ccccc1 (configuration not stated)	–	> 100 µM	–	> 100 µM	–	> 100	–	> 100 µM	–	> 100 µM	–	> 100 µM	–	> 100 µM	> 100	–	–	–	–	–
C=C1Oc2nc3ccccc3c(=O)n2C1(C)C	–	> 10 µM	–	> 100 µM	–	> 100	–	> 100 µM	–	–	–	> 100 µM	–	> 100 µM	> 100	> 100 µM	–	–	–	–
Cc1cc(C(=O)N2CCN(Cc3ccccc3)CC2)c(C)o1	–	> 100 µM	–	> 100 µM	–	> 100	–	> 100 µM	–	–	–	> 100 µM	–	> 100 µM	> 100	> 100 µM	–	–	–	–
O=C(NNC(=O)c1ccncc1)c1ccncc1	–	> 100 µM	–	> 100 µM	–	> 100	–	–	–	> 100 µM	–	> 100 µM	–	> 100 µM	> 100	> 100 µM	–	> 100 µM	–	–
CC1OC(OC2CC(O)C3(CO)C4C(O)CC5(C)C(C6=CC(=O)OC6)CCC5(O)C4CCC3(O)C2)C(O)C(O)C1O (configuration not stated)	< 0.0138 µM	0.0291 µM	0.0237 µM	0.105 µM	–	0.0228	< 0.0132 µM	< 0.0182 µM	< 0.0129 µM	< 0.0202 µM	< 0.0105 µM	0.0323 µM	< 0.0139 µM	0.0209 µM	–	–	0.0222 µM	0.0785 µM	< 0.0198 µM	–
C=C(CS(=O)(=O)c1ccccc1)[P+](c1ccccc1)(c1ccccc1)c1ccccc1	–	50 µM	–	22.2 µM	–	32.4	–	78.2 µM	–	38.4 µM	–	92.4 µM	–	25.2 µM	25	31.7 µM	–	–	–	–
